The test addresses Cannabinoid receptor 1 (Rattus norvegicus, UniProt P20272).

Bounds are passed on as bounds.

Chain of Cannabinoid receptor 1 (P20272 whole entry): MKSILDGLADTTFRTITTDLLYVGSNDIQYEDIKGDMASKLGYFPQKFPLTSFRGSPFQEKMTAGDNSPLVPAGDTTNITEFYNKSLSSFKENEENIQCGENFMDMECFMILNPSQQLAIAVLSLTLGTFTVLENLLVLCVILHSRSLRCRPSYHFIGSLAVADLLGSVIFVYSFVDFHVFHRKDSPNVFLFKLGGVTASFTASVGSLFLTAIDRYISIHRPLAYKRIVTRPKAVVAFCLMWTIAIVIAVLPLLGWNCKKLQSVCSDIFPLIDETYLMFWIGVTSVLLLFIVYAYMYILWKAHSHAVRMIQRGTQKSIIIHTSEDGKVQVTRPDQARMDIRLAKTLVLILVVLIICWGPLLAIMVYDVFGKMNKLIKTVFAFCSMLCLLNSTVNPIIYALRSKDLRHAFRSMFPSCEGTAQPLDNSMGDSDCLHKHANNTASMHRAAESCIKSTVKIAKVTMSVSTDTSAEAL

The compound `CCCCC/C=C/C/C=C/C/C=C/C/C=C/CCC(C)C(=O)NCCF` (configuration not stated) [(5Z,8Z,11Z,14Z)-N-(2-Fluoroethyl)-2-methyl-5,8,11,14-icosatetrenamide] displayed a Ki of 5.7 nM.

In turn, `CCCCCn1ccc(C(=O)c2cccc3ccccc23)c1` displayed a Ki of 87 nM.

In the case of `CCCCn1cc(C(=O)c2cccc3ccccc23)c2ccccc21` [1-Naphthyl(1-butyl-1H-indole-3-yl)methanone], the affinity, expressed as Ki, was 8.9 nM. `CCCCC/C=C/C/C=C/C/C=C/C/C=C/CCC(C)C(=O)NCCO` (configuration not stated) [(5Z,8Z,11Z,14Z)-2-Methyl-N-(2-hydroxyethyl)-5,8,11,14-icosatetrenamide] registered a Ki of 53 nM.

In the case of `CCCCCc1cc(O)c2c(c1)OC(C)(C)c1ccc(C)cc1-2` [6,6,9-Trimethyl-3-pentyl-6H-benzo[c]chromen-1-ol(Cannabinol)], the Ki came out at 308 nM. The value for `Cn1ccc(C(=O)c2cccc3ccccc23)c1` [JWH-044] was above 10000 nM; that for `CCn1ccc(C(=O)c2cccc3ccccc23)c1` [JWH-045] was above 10000 nM; that for `CCCCC/C=C/C/C=C/C/C=C/C/C=C/CCC(C)(C)C(=O)NCCO` [2-dimethyl-anandamide] was 47 nM. For `CCCCCCn1ccc(C(=O)c2cccc3ccccc23)c1` [CAS_162934-74-9], the Ki stood at 399 nM. In turn, `CCCn1ccc(C(=O)c2cccc3ccccc23)c1` [JWH-032] displayed a Ki above 10000 nM. As to `CCCCCCC(C)(C)c1cc(O)c2c(c1)OC(C)(C)[C@@H]1CC=C(CO)CC21` (stereo partly drawn) [(R)-3-(1,1-Dimethyl-heptyl)-9-hydroxymethyl-6,6-dimethyl-6a,7,10,10a-tetrahydro-6H-benzo[c]chromen-1-ol], the affinity corresponds to a Ki of 0.73 nM. On to `CCCCCCCn1ccc(C(=O)c2cccc3ccccc23)c1` [JWH-036], for which the Ki was determined as 309 nM.

Source of the values: BindingDB's records for PubMed 11408610 (Virginia Commonwealth University, 2001).
